Source: the supplement of paper PMC11208160

Experiment: recombinant UMI read abundance after kanamycin selection (control-corrected) (log10(CPM+1)); higher = more efficient recombination; extreme values may be limits of the assay; sequences stand for … in AGTGCAGAGAAAATCGGCCAGTTTTCTCTGCCTGCAGTCCGCATGCCGTGGGACCCCTTGGGTTCTAACCTGTTGCCTAGATTTATGCAGCGGACTGCCTTTCTCCCAAAGTGATAAACCGG…AGGTTGGTTTCACT; site = the 11-nt donor
How it was run: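 For the IS621 bridge recombinase, a pooled Escherichia coli screen tested donor and donor-binding-loop pairs. Cells received the pair library together with a target plasmid encoding a fixed target and T7-inducible recombinase, then went onto IPTG (0.07 mM) plus kanamycin or unselected plates in duplicate. After PCR across the donor–target junction and sequencing, recombinant UMI counts were normalized to CPM, averaged, and scaled by control-derived factors. Each value is given as log10(CPM+1).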
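Also: IS621 bridge recombinase in Escherichia coli cells against a fixed T5 target plasmid.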

Going from “CGATTGACATGGACCGGTTTTCCCGGTAATCCGTATTTGTT (site CGATTGACTAA)” to “CGATTTTCATGGACCGGTTTTCCCGGTAATCCGTATTTGCT (site CGATCATCTAG)”, the “recombinant UMI read abundance (log10)” value falls from 1.24 to 0.

Going from “CGATTTTCATGGACCGGTTTTCCCGGTAATCCGTATTTGCT (site CGATTTTCTAG)” to “CGCAAGACATGGACCGGTTTTCCCGGTAATCCGTATTTGCA (site CGCAAGACTTG)”, the “recombinant UMI read abundance (log10)” value rises from 1.29 to 1.79.

First: CGCAATACATGGACCGGTTTTCCCGGTAATCCGTATTTGGT (site CGCAATACTAC)
Second: CGCAATCCATGGACCGGTTTTCCCGGTAATCCGTATTTGTT (site CGAAATCCTAA)
The “recombinant UMI read abundance (log10)” value of the first is higher: 1.25 for the first, 0.00301 for the second.

Compared with “CGCAATCCATGGACCGGTTTTCCCGGTAATCCGTATTTGTT (site CGCAATCCTAA)”, “CGCAATCCATGGACCGGTTTTCCCGGTAATCCGTATTTGTT (site CGGAATCCTAA)” is lower in “recombinant UMI read abundance (log10)” value: 0.698 for the first, 0 for the second.

Compared with “CGCAATCCATGGACCGGTTTTCCCGGTAATCCGTATTTGTT (site CGTAATCCTAA)”, “CGCACCCCATGGACCGGTTTTCCCGGTAATCCGTATTTGAC (site CGCACCCCTGT)” is higher in “recombinant UMI read abundance (log10)” value: 0 for the first, 1.43 for the second.

Compared with “CGCACGACATGGACCGGTTTTCCCGGTAATCCGTATTTGCC (site CGCACGACTGG)”, “CGCAGAACATGGACCGGTTTTCCCGGTAATCCGTATTTGCA (site CGCAGAACTTG)” is lower in “recombinant UMI read abundance (log10)” value: 1.95 for the first, 1.37 for the second.

Compared with “CGCAGAACATGGACCGGTTTTCCCGGTAATCCGTATTTGTA (site CGCAGAACTTA)”, “CGCATCCCATGGACCGGTTTTCCCGGTAATCCGTATTTGGC (site CGCATCCCTGC)” is lower in “recombinant UMI read abundance (log10)” value: 2.19 for the first, 1.75 for the second.

“CGCATTTCATGGACCGGTTTTCCCGGTAATCCGTATTTGCC (site CGCATTTCTGG)” and “CGCCACCCATGGACCGGTTTTCCCGGTAATCCGTATTTGTT (site AGCCACCCTAA)” are within 0.2 log units of each other in “recombinant UMI read abundance (log10)” value: 0 for the first, 0.00879 for the second.

“CGCCACCCATGGACCGGTTTTCCCGGTAATCCGTATTTGTT (site CGCCACCCTAA)” and “CGCCACCCATGGACCGGTTTTCCCGGTAATCCGTATTTGTT (site GGCCACCCTAA)” are within 0.2 log units of each other in “recombinant UMI read abundance (log10)” value: 0.0407 for the first, 0.0241 for the second.

First: CGCCACCCATGGACCGGTTTTCCCGGTAATCCGTATTTGTT (site TGCCACCCTAA)
Second: CGCCAGACATGGACCGGTTTTCCCGGTAATCCGTATTTGCC (site CGCCAGACTGG)
The “recombinant UMI read abundance (log10)” value of the first is lower: 0.00618 for the first, 1.38 for the second.

Going from “CGCCATCCATGGACCGGTTTTCCCGGTAATCCGTATTTGTT (site CGCCATCCTAA)” to “CGCCATCCATGGACCGGTTTTCCCGGTAATCCGTATTTGTT (site CGGAATCCTAA)”, the “recombinant UMI read abundance (log10)” value falls from 0.44 to 0.

Compared with “CGCCATGCATGGACCGGTTTTCCCGGTAATCCGTATTTGAC (site CGCCATGCTGT)”, “CGCCGTACATGGACCGGTTTTCCCGGTAATCCGTATTTGCA (site CGCCGTACTAG)” is lower in “recombinant UMI read abundance (log10)” value: 1.6 for the first, 0.00535 for the second.

First: CGCCGTACATGGACCGGTTTTCCCGGTAATCCGTATTTGCA (site CGCCGTACTCG)
Second: CGCCGTACATGGACCGGTTTTCCCGGTAATCCGTATTTGCA (site CGCCGTACTGG)
The “recombinant UMI read abundance (log10)” value of the first is lower: 0.013 for the first, 0.685 for the second.

Going from “CGCCGTACATGGACCGGTTTTCCCGGTAATCCGTATTTGCA (site CGCCGTACTTG)” to “CGCCGTACATGGACCGGTTTTCCCGGTAATCCGTATTTGGT (site CGCCGTACTAA)”, the “recombinant UMI read abundance (log10)” value falls from 2.07 to 0.0124.

First: CGCCGTACATGGACCGGTTTTCCCGGTAATCCGTATTTGGT (site CGCCGTACTAC)
Second: CGCCGTACATGGACCGGTTTTCCCGGTAATCCGTATTTGGT (site CGCCGTACTAG)
The “recombinant UMI read abundance (log10)” value of the first is higher: 0.57 for the first, 0 for the second.

Compared with “CGCCGTACATGGACCGGTTTTCCCGGTAATCCGTATTTGGT (site CGCCGTACTAT)”, “CGCCTGTCATGGACCGGTTTTCCCGGTAATCCGTATTTGTT (site CGCCTGTCTAA)” is higher in “recombinant UMI read abundance (log10)” value: 0.321 for the first, 0.902 for the second.

“CGCCTTCCATGGACCGGTTTTCCCGGTAATCCGTATTTGGT (site CGCCTTCCTAC)” and “CGCGGAACATGGACCGGTTTTCCCGGTAATCCGTATTTGTT (site CGAGGAACTAA)” are within 0.2 log units of each other in “recombinant UMI read abundance (log10)” value: 0.0121 for the first, 0.0752 for the second.

Going from “CGCGGAACATGGACCGGTTTTCCCGGTAATCCGTATTTGTT (site CGCGGAACTAA)” to “CGCGGAACATGGACCGGTTTTCCCGGTAATCCGTATTTGTT (site CGGGGAACTAA)”, the “recombinant UMI read abundance (log10)” value falls from 2.39 to 0.0138.

First: CGCGGAACATGGACCGGTTTTCCCGGTAATCCGTATTTGTT (site CGTGGAACTAA)
Second: CGCGGAGCATGGACCGGTTTTCCCGGTAATCCGTATTTGGC (site CGCGGAGCTGC)
The “recombinant UMI read abundance (log10)” value of the first is lower: 0.00441 for the first, 0.884 for the second.
